Where two headings read alike, the source gives them in different places.
Experiments:
Test in all cases: cells
Design in all cases: species or system AML cell lines (8); Secondary HTS, 10-point dose-response in triplicate, Cell Titer Glo viability, four-parameter fit EC50
CHRF288-11 = details: read-out: CHRF288-11
M07e = details: M-07e, read-out: M07e
ML-2 = details: Homo sapiens, read-out: ML-2
CMS = details: read-out: CMS
U937 = details: Homo sapiens, read-out: U937
MV4-11 = details: Homo sapiens, read-out: MV4-11
MOLM-13 = details: Homo sapiens, read-out: MOLM-13
CMK = details: Homo sapiens, read-out: CMK

Row | EC50 (U937; U-937, 72 h) [µM] | EC50 (MV4-11; MV4-11, 72 h) [µM] | EC50 (MOLM-13; MOLM-13, 72 h) [µM] | Structure (SMILES) | EC50 (CHRF288-11; 72 h) [µM] | EC50 (M07e; 72 h) [µM] | EC50 (ML-2; ML-2, 72 h) [µM] | EC50 (CMS; 72 h) [µM] | EC50 (CMK; CMK, 72 h) [µM] | EC50 (CHRF288-11; 72 h cell viability) [µM] | EC50 (M07e; 72 h cell viability) [µM] | EC50 (ML-2; 72 h cell viability) [µM] | EC50 (CMS; 72 h cell viability) [µM] | EC50 (U937; U-937, 72 h cell viability) [µM] | EC50 (MV4-11; 72 h cell viability) [µM] | EC50 (MOLM-13; 72 h cell viability) [µM] | EC50 (CMK; 72 h cell viability) [µM]
1 | > 10 | 0.071 | 0.11 | CCc1c(O)cc(O)c(C(=O)c2ccc(OCCN3CCOCC3)c(OC)c2)c1CC(=O)N(CCOC)CCOC [SJ000821566, KW-2478] | 6.3 | > 10 | 0.16 | > 10 | 4.4 | – | – | – | – | – | – | – | –
2 | > 10 | 0.023 | 0.019 | CC(C)NCCCn1c(Sc2cc3c(cc2I)OCO3)nc2c(N)ncnc21 [SJ000821568, PU-H71] | 0.17 | > 10 | 0.082 | 0.18 | 0.024 | – | – | – | – | – | – | – | –
3 | > 10 | > 10 | > 10 | Cc1cc(I)ccc1Nc1c(C(=O)NOCC2CC2)cc(F)c(F)c1F [SJ000821584, PD 198306] | > 10 | > 10 | > 10 | > 10 | > 10 | – | – | – | – | – | – | – | –
4 | 6.2 | > 10 | > 10 | CNC(=O)c1c(F)cccc1Nc1nc(Nc2cc3c(ccn3C(=O)CN(C)C)cc2OC)nc2[nH]ccc12 [SJ000821585, GSK1838705A] | > 10 | > 10 | > 10 | > 10 | 5.8 | – | – | – | – | – | – | – | –
5 | > 10 | 3.2 | 9.3 | CCOc1cc(N2CCC(O)CC2)ccc1Nc1ncc2c(n1)N(C)c1ccccc1C(=O)N2C [SJ000821586, XMD 8-92] | > 10 | > 10 | > 10 | > 10 | 2 | – | – | – | – | – | – | – | –
6 | 6.5 | 6.4 | 6.4 | COC(=O)[C@H](CC(C)C)NC(=O)c1ccc(NC[C@@H](N)CS)cc1-c1cccc2ccccc12 [SJ000821624, GGTI 298] | > 10 | > 10 | > 10 | > 10 | > 10 | – | – | – | – | – | – | – | –
7 | 8.1 | 0.001 | 0.021 | CCCCNc1ncc2c(-c3ccc(CN4CCN(C)CC4)cc3)cn(C3CCC(O)CC3)c2n1 (stereo not shown) [SJ000821849, UNC2025A] | 6.4 | 8.2 | 5 | > 10 | 4.6 | – | – | – | – | – | – | – | –
8 | > 10 | > 10 | > 10 | COc1ccc2nc3n[nH]c(C)c3c(NCCOCCO)c2c1 [SJ000832935, SCH 51344] | > 10 | > 10 | > 10 | > 10 | > 10 | – | – | – | – | – | – | – | –
9 | 10 | > 10 | > 10 | O=C(CCCCCCNC(=O)c1cnc(N(c2ccccc2)c2ccccc2)nc1)NO [SJ000833835, ROCILINOSTAT] | > 10 | 2.7 | > 10 | > 10 | 9.1 | – | – | – | – | – | – | – | –
10 | > 10 | > 10 | > 10 | O=C(NCC1(c2nc(-c3ccccc3)cs2)CCOCC1)c1cccc(-c2noc(C(F)(F)F)n2)c1 [SJ000833838, TMP269] | > 10 | 0.19 | > 10 | > 10 | > 10 | – | – | – | – | – | – | – | –
11 | > 10 | > 10 | > 10 | Cc1ccc(C(=O)c2cc(/C=C/C(=O)NO)n(C)c2)cc1 [SJ000833840, MC 1293] | > 10 | 0.45 | > 10 | > 10 | 8.7 | – | – | – | – | – | – | – | –
12 | 4.7 | > 10 | > 10 | C[C@@H]1COCCN1c1cc(C2(S(C)(=O)=O)CC2)nc(-c2cccc3[nH]ccc23)n1 [SJ000833844, AZ-20] | 2.5 | 0.2 | 0.031 | 0.6 | > 10 | – | – | – | – | – | – | – | –
13 | > 10 | > 10 | 0.0024 | O=C(CCN1CCN(C(=O)OCc2cc(Cl)cc(Cl)c2)CC1)c1ccc2[nH]c(=O)oc2c1 [SJ000833851, PF-8380] | > 10 | > 10 | > 10 | > 10 | > 10 | – | – | – | – | – | – | – | –
14 | > 10 | > 10 | 0.0068 | Cc1noc(-c2ccc(-c3ccc(CC(=O)O)cc3)cc2)c1NC(=O)O[C@H](C)c1ccccc1 [SJ000833854, AM-095] | > 10 | > 10 | > 10 | > 10 | > 10 | – | – | – | – | – | – | – | –
15 | > 10 | > 10 | 0.018 | Cc1noc(-c2ccc(-c3ccc(CC(=O)O)cc3)cc2)c1NC(=O)O[C@H](C)c1ccccc1Cl [SJ000833864, AM-966] | > 10 | > 10 | > 10 | > 10 | > 10 | – | – | – | – | – | – | – | –
16 | 3.9 | > 10 | > 10 | CN(c1ncccc1CNc1nc(Nc2ccc3c(c2)CC(=O)N3)ncc1C(F)(F)F)S(C)(=O)=O [SJ000833883, PF-00562271] | > 10 | 6.2 | 0.5 | > 10 | 2.6 | – | – | – | – | – | – | – | –
17 | > 10 | > 10 | > 10 | N#Cc1ccc(COC[C@H]2O[C@@H](n3c(NCc4ccc(Cl)c(Cl)c4)nc4c(N)ncnc43)[C@H](O)[C@@H]2O)cc1 [SJ000833885, VER-155008] | > 10 | > 10 | > 10 | 5.9 | > 10 | – | – | – | – | – | – | – | –
18 | > 10 | > 10 | > 10 | N[C@@H]1CCCN(c2c(/C=C3\SC(=O)NC3=O)cccc2-c2ccccc2)C1 [SJ000833889, AZD1208] | > 10 | > 10 | > 10 | > 10 | > 10 | – | – | – | – | – | – | – | –
19 | > 10 | > 10 | > 10 | O=c1cc(N2CCOCC2)oc2c(-c3cccc4c3sc3ccccc34)cccc12 [SJ000834137, NU 7441] | > 10 | 0.3 | > 10 | > 10 | > 10 | – | – | – | – | – | – | – | –
20 | – | – | – | O=C(Nc1ncc([N+](=O)[O-])s1)c1ccc([N+](=O)[O-])c(Cl)c1 [SJ000834139, SM-7368] | – | – | – | – | – | > 10 | > 10 | > 10 | > 10 | 6.8 | > 10 | > 10 | > 10
21 | > 10 | > 10 | > 10 | CCOC(=O)C1=C(C)NC2=C(C(=O)CC(C)(C)C2)C1c1ccc(-c2ccccc2)cc1 (stereo not shown) [SJ000834140, ITD-1] | > 10 | > 10 | > 10 | > 10 | > 10 | – | – | – | – | – | – | – | –

Row | Structure (SMILES) | EC50 (U937; U-937, 72 h) [µM] | EC50 (MV4-11; MV4-11, 72 h) [µM] | EC50 (MOLM-13; MOLM-13, 72 h) [µM] | EC50 (CHRF288-11; 72 h) [µM] | EC50 (M07e; 72 h) [µM] | EC50 (ML-2; ML-2, 72 h) [µM] | EC50 (CMS; 72 h) [µM] | EC50 (CMK; CMK, 72 h) [µM] | EC50 (CHRF288-11; 72 h cell viability) [µM] | EC50 (M07e; 72 h cell viability) [µM] | EC50 (ML-2; 72 h cell viability) [µM] | EC50 (CMS; 72 h cell viability) [µM] | EC50 (U937; U-937, 72 h cell viability) [µM] | EC50 (MV4-11; 72 h cell viability) [µM] | EC50 (MOLM-13; 72 h cell viability) [µM] | EC50 (CMK; 72 h cell viability) [µM]
22 | CNC(=O)c1ccccc1Nc1nc(Nc2ccc(N3CCOCC3)cc2OC)ncc1Cl [SJ000822451, NVP-TAE226] | 4.5 | > 10 | 0.7 | 9.8 | 7.6 | 2.5 | > 10 | 0.2 | – | – | – | – | – | – | – | –
23 | CC(N[C@H]1C[C@@H]1c1ccccc1)c1ccc2c(c1)OCCO2 (stereo partly shown) [SJ000832930, LSD1-C76] | > 10 | 0.001 | > 10 | > 10 | > 10 | > 10 | > 10 | > 10 | – | – | – | – | – | – | – | –
24 | COc1ccc(Cn2ccc3ccc(C(=O)NO)cc32)cc1 [SJ000833836, PCI 34051] | > 10 | > 10 | > 10 | > 10 | > 10 | > 10 | 6.8 | > 10 | – | – | – | – | – | – | – | –
25 | CC(C)(C#N)c1ccc(N2C(=O)OCc3cnc4ccc(-c5cnc6ccccc6c5)cc4c32)cc1 [SJ000833848, ETP-46464] | > 10 | > 10 | > 10 | 8.3 | > 10 | 3.6 | 5.2 | 0.73 | – | – | – | – | – | – | – | –
26 | C=CC(=O)Nc1cccc(Nc2nc(Nc3ccc(OCCOC)cc3)ncc2F)c1 [SJ000833882, CC-292 (AVL-292)] | 4.8 | > 10 | > 10 | > 10 | 9.5 | > 10 | > 10 | 4 | – | – | – | – | – | – | – | –
